Measurements as given in patent US6867207B2, “IL-5 inhibiting 6-azauracil derivatives” (Janssen Pharmaceutica N.V., priority 1997, dated 2005).

tested on: IL-5 production; assay: In vitro inhibition of IL-5 production in human blood (phytohemagglutinin-stimulated whole blood, ELISA); assay type: cell-based; conditions: test dose 1×10^−6 M, 48 hours;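 further: values marked with an asterisk were tested at 10 µM and unmarked values at 1 µM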
Method in brief: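 Percent inhibition of IL-5, quantified by ELISA in cell-free supernatants, is given at a single dose of 1×10^−6 M (or 1×10^−5 M). Threefold-diluted human whole blood from healthy men received compound for 60 min at 37° C before 48 h PHA stimulation at 2 μg/mL.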

Row | SMILES | % inh. (percentage inhibition of IL-5 production)
1 | Nc1ccccc1-c1nnc(C(c2ccc(Cl)cc2)c2c(Cl)cc(-n3ncc(=O)[nH]c3=O)cc2Cl)o1 (racemic) [Compound 211] | 83%
2 | COc1ccccc1-c1nnc(C(c2ccc(Cl)cc2)c2c(Cl)cc(-n3ncc(=O)[nH]c3=O)cc2Cl)o1 (racemic) [Compound 174] | 83%
3 | COc1cc(-n2ncc(=O)[nH]c2=O)ccc1C(C)(c1ccc(Cl)c(C(F)(F)F)c1)c1nc(-c2ccccc2)cs1 (racemic) [Comp 255] | 67%
4 | O=C(NCc1sc(C(c2ccc(Cl)cc2)c2c(Cl)cc(-n3ncc(=O)[nH]c3=O)cc2Cl)nc1-c1ccccc1)Nc1ccc(Cl)cc1 (racemic) [Comp 333] | 61%
5 | COC1CCN(Cc2sc(C(c3ccc(Cl)cc3)c3c(Cl)cc(-n4ncc(=O)[nH]c4=O)cc3Cl)nc2-c2ccccc2)CC1.Cl.O (racemic) [Comp 314] | 81%
6 | Cc1sc(C(C)(c2ccc(Cl)c(C(F)(F)F)c2)c2c(Cl)cc(-n3ncc(=O)[nH]c3=O)cc2Cl)nc1-c1ccccc1 (racemic) [Comp 234] | 83%
7 | CCOc1ccc2nc(SC(c3ccc(Cl)c(C(F)(F)F)c3)c3c(Cl)cc(-n4ncc(=O)[nH]c4=O)cc3Cl)sc2c1 (centres unmarked) [Compound 394] | 93%
8 | O=c1cnn(-c2cc(Cl)c(C(c3ccc(Cl)cc3)c3csc(-c4cccnc4)n3)c(Cl)c2)c(=O)[nH]1 (racemic) [Compound 375] | 91%
9 | O.O=c1cnn(-c2cc(Cl)c(C(c3ccc(Cl)cc3)c3nnc(-c4ccncc4)o3)c(Cl)c2)c(=O)[nH]1 (racemic) [Compound 158] | 92%
10 | O=c1cnn(-c2cc(Cl)c(C(Sc3nc4ccc([N+](=O)[O-])cc4s3)c3ccc(Cl)c(C(F)(F)F)c3)c(Cl)c2)c(=O)[nH]1 (centres unmarked) [Compound 388] | 90%
11 | CN1CCC(C(=O)Cc2sc(C(c3ccc(Cl)cc3)c3c(Cl)cc(-n4ncc(=O)[nH]c4=O)cc3Cl)nc2-c2ccccc2)CC1 (racemic) [Comp 283] | 93%
12 | O=c1cnn(-c2cc(Cl)c(C(Sc3ccccn3)c3ccc(Cl)c(C(F)(F)F)c3)c(Cl)c2)c(=O)[nH]1 (centres unmarked) [Compound 378] | 91%
13 | Cc1cc(C(C)(c2ccc(Cl)c(C(F)(F)F)c2)c2nc(-c3ccccc3)c(C)s2)c(Cl)cc1-n1ncc(=O)[nH]c1=O (racemic) [Comp 238] | 74%
14 | O=c1cnn(-c2cc(Cl)c(C(c3ccc(Cl)cc3)c3nc4ccccc4s3)c(Cl)c2)c(=O)[nH]1 (centres unmarked) [Comp 421] | 86%
15 | Cc1cccc(-c2nc(C(c3ccc(Cl)cc3)c3c(Cl)cc(-n4ncc(=O)[nH]c4=O)cc3Cl)cs2)c1 (racemic) [Compound 372] | 86%
16 | O=c1cnn(-c2ccc(C(c3ccc(Cl)cc3)c3nnc(-c4ccccc4)o3)c(Cl)c2)c(=O)[nH]1 (racemic) [Comp 101] | 66%
17 | O=c1cnn(-c2cc(Cl)c(C(c3ccc(Cl)cc3)c3nc(-c4cccc(F)c4)cs3)c(Cl)c2)c(=O)[nH]1 (racemic) [Comp 21] | 91%
18 | COc1cc(C(c2nc(-c3ccccc3)cs2)c2c(Cl)cc(-n3ncc(=O)[nH]c3=O)cc2Cl)ccc1Cl (racemic) [Comp 289] | 96%
19 | CCOC(=O)c1sc(C(c2ccc(Cl)cc2)c2c(Cl)cc(-n3ncc(=O)[nH]c3=O)cc2Cl)nc1-c1ccccc1Cl (racemic) [Comp 274] | 89%
20 | Cc1nc(-c2ccccc2)c(C(c2ccc(Cl)cc2)c2c(Cl)cc(-n3ncc(=O)[nH]c3=O)cc2Cl)s1 (racemic) [Compound 136] | 93%
21 | O=c1cnn(-c2cc(Cl)c(C(Sc3ncccn3)c3ccc(Cl)cc3)c(Cl)c2)c(=O)[nH]1 (single isomer, unassigned) [Compound 347] | 8%
22 | CN(C)CCNC(c1ccc(Cl)cc1)(c1nc(-c2ccccc2)c(Cl)s1)c1ccc(-n2ncc(=O)[nH]c2=O)cc1Cl (racemic) [Comp 266] | 46%
23 | Cc1cccc(-c2nnc(C(c3ccc(Cl)cc3)c3c(Cl)cc(-n4ncc(=O)[nH]c4=O)cc3Cl)o2)c1 (racemic) [Compound 178] | 78%
24 | O=c1cnn(-c2cc(Cl)c(C(c3ccc(Cl)cc3)c3nnc(CCc4ccccc4)o3)c(Cl)c2)c(=O)[nH]1 (racemic) [Compound 172] | 17%

Row | SMILES | % inh. (percentage inhibition of IL-5 production)
25 | Cc1nc(SC(c2ccc(Cl)cc2)c2ccc(-n3ncc(=O)[nH]c3=O)cc2Cl)nc(O)c1CC1CC1 (racemic) [Compound 338] | −15%
26 | O=c1cnn(-c2cc(Cl)c(C(c3ccc(Cl)cc3)c3nc(-c4cc(F)ccc4F)cs3)c(Cl)c2)c(=O)[nH]1 (racemic) [Comp 290] | 92%
27 | O=c1cnn(-c2cc(Cl)c(C(c3ccc(Cl)cc3)c3nc(-c4ccccc4)c(CN4CCC(N5CCCCC5)CC4)s3)c(Cl)c2)c(=O)[nH]1 (racemic) [Comp 321] | 92%
28 | CN(Cc1ccccc1)Cc1sc(C(c2ccc(Cl)cc2)c2c(Cl)cc(-n3ncc(=O)[nH]c3=O)cc2Cl)nc1-c1ccccc1 (racemic) [Comp 297] | 90%
29 | Cc1sc(C(c2ccc(Cl)cc2)c2c(Cl)cc(-n3ncc(=O)[nH]c3=O)cc2Cl)nc1-c1cccc(F)c1 (racemic) [Comp 287] | 94%
30 | O=c1cnn(-c2ccc(C(c3ccc(Cl)cc3)c3cnc(-c4ccccc4)s3)c(Cl)c2)c(=O)[nH]1 (racemic) [Compound 141] | 64%
31 | O=c1cnn(-c2cc(Cl)c(C(Sc3nc(-c4ccc(F)cc4F)cs3)c3ccc(Cl)c(C(F)(F)F)c3)c(Cl)c2)c(=O)[nH]1 (centres unmarked) [Compound 397] | 83%
32 | COCc1cc(O)nc(SC(c2ccc(Cl)cc2)c2ccc(-n3ncc(=O)[nH]c3=O)cc2Cl)n1 (racemic) [Compound 82] | 19%
33 | O=c1cnn(-c2cc(Cl)c(C(Sc3nc4ccccc4[nH]3)c3ccc(Cl)c(C(F)(F)F)c3)c(Cl)c2)c(=O)[nH]1 (centres unmarked) [Compound 396] | 28%
34 | Cc1sc(C(c2ccc(Cl)cc2)c2c(Cl)cc(-n3ncc(=O)[nH]c3=O)cc2Cl)nc1-c1cccc(F)c1 (racemic) [Comp 258] | 98%
35 | CN1CCN(c2ccc(-c3nnc(C(c4ccc(Cl)cc4)c4c(Cl)cc(-n5ncc(=O)[nH]c5=O)cc4Cl)o3)cc2)CC1 (racemic) [Compound 199] | 43%
36 | O=c1cnn(-c2cc(Cl)c(C(c3ccc(Cl)c(C(F)(F)F)c3)c3nc(-c4ccccc4)cs3)c(Cl)c2)c(=O)[nH]1 (racemic) [Comp 226] | 93%
37 | COCCNC(=O)c1sc(C(c2ccc(Cl)cc2)c2c(Cl)cc(-n3ncc(=O)[nH]c3=O)cc2Cl)nc1-c1ccccc1 (racemic) [Comp 307] | 78%
38 | CCc1sc(C(c2ccc(Cl)cc2)c2c(Cl)cc(-n3ncc(=O)[nH]c3=O)cc2Cl)nc1-c1ccccc1F (racemic) [Comp 261] | 93%
39 | O=c1cnn(-c2ccc(C(NC3CCCCC3)c3ccc(Cl)cc3)c(Cl)c2)c(=O)[nH]1 (racemic) [Compound 46] | 64%
40 | O=c1cnn(-c2cc(Cl)c(C(Sc3nc(-c4ccccc4)no3)c3ccc(Cl)c(C(F)(F)F)c3)c(Cl)c2)c(=O)[nH]1 (racemic) [Compound 404] | 92%
41 | CC(c1ccc(Cl)cc1)(c1nnc(-c2ccccc2)o1)c1ccc(-n2ncc(=O)[nH]c2=O)cc1Cl (racemic) [Comp 104] | 60%
42 | Cc1ccsc1-c1nnc(C(c2ccc(Cl)cc2)c2c(Cl)cc(-n3ncc(=O)[nH]c3=O)cc2Cl)o1 (racemic) [Compound 203] | 82%
43 | CC(c1ccc(Cl)cc1)(c1nc(-c2ccccc2)c(-c2ccccc2)s1)c1c(Cl)cc(-n2ncc(=O)[nH]c2=O)cc1Cl (racemic) [Comp 18] | 88%
44 | O=c1cnn(-c2cc(Cl)c(C(c3ccc(Cl)cc3)c3csc(-c4ccccc4F)n3)c(Cl)c2)c(=O)[nH]1 (racemic) [Compound 364] | 95%
45 | Cc1nc(-c2ccccc2)sc1C(c1ccc(Cl)cc1)c1c(Cl)cc(-n2ncc(=O)[nH]c2=O)cc1Cl (racemic) [Compound 138] | 81%
46 | O=c1cnn(-c2cc(Cl)c(C(c3ccc(Cl)cc3)c3cnc(-c4ccccc4)s3)c(Cl)c2)c(=O)[nH]1 (racemic) [Compound 142] | 80%
47 | O=c1cnn(-c2ccc(C(Sc3nc[nH]n3)c3ccc(Cl)cc3)c(Cl)c2)c(=O)[nH]1 (racemic) [Compound 55] | 26%

same assay, conditions: test dose 1×10^−6 M, 48 hours, read-out: % inh. (percentage inhibition of IL-5 production)

Row | SMILES | inhibition at 1 µM
48 | O=c1cnn(-c2ccc(C(Sc3ccccn3)c3ccc(Cl)cc3)c(Cl)c2)c(=O)[nH]1 (racemic) [Compound 93, (±)-2-[3-chloro-4-[(4-chlorophenyl)(2-pyridinyl-thio)methyl]phenyl]-1,2,4-triazine-3,5(2H,4H)-dione] | 86%
49 | Cn1ccnc1C(c1ccc(Cl)cc1)c1ccc(-n2ncc(=O)[nH]c2=O)cc1Cl (racemic) [Compound 123, (±)-2-[3-chloro-4-[(4-chlorophenyl)(1-methyl-1H-imidazol-2-yl)methyl]phenyl]-1,2,4-triazine-3,5(2H,4H)-dione] | 13%
50 | CC(c1ccc(Cl)cc1)(c1nc2ccccc2o1)c1ccc(-n2ncc(=O)[nH]c2=O)cc1Cl (racemic) [Compound 132, (±)-2-[3-chloro-4-[1-(4-chlorophenyl)-1-(2-benzoxazolyl)ethyl]phenyl]-1,2,4-triazine-3,5(2H,4H)-dione] | 55%
